From ChEMBL document CHEMBL3608244, “Left-Hand Side Exploration of Novel Bacterial Topoisomerase Inhibitors to Improve Selectivity against hERG Binding” (ACS Med Chem Lett, 2015) come the findings set out here.

What is called MIC is the lowest concentration that inhibits growth of the organism. The low end stands for inhibition by little substance, the high end for a need for much substance. Broadly, the IC50 is the concentration at which inhibition is half-maximal. Broadly, the solubility is the dissolved amount per volume that the medium holds. Lower therefore signals a poorly soluble substance.

Data set [1] has as its system Mycobacterium tuberculosis. Nature of the data set: Antimycobacterial activity against Mycobacterium tuberculosis H37Rv ATCC 27294 incubated for 7 days by microdilution method. The settings on record: H37Rv ATCC 27294, 168 h. The data set is classed as functional. For orientation: Dilution methods test growth across graded concentrations, often in twofold steps.
Data set [2] deals with Voltage-gated inwardly rectifying potassium channel KCNH2 (Homo sapiens, UniProt Q12809).
Description: Inhibition of human ERG by IonWorks assay
Data set [3] concerns Caco-2. Nature of the data set: Permeability across human Caco2 cells. It counts as ADME, cell-based.
The target of data set [4] is DNA gyrase subunit A/DNA gyrase subunit B (Mycobacterium tuberculosis (strain ATCC 25618 / H37Rv), UniProt P9WG45+P9WG47). Nature of the data set: Inhibition of Mycobacterium tuberculosis H37Rv DNA gyrase assessed as supercoiling of pBR322 DNA after 90 mins by agarose gel electrophoresis method.
Data set [5] is described as follows: Solubility of the compound. It counts as physicochemical.
Data set [6] has as its system Mycobacterium tuberculosis. Kind of data set: Antimycobacterial activity against Mycobacterium tuberculosis in acute mouse model of tuberculosis assessed as bacteria killing effect at 100 mg/kg, po bid administered for 10 days relative to early control. It counts as functional.
Data set [7] concerns Mycobacterium tuberculosis. Nature of the data set: Antimycobacterial activity against Mycobacterium tuberculosis infected in human THP1 cells assessed as bacteria killing effect. It counts as functional, organism-based. As to conditions: THP-1.
Data set [8] deals with Mycobacterium tuberculosis. Kind of data set: Antimycobacterial activity against Mycobacterium tuberculosis infected in human THP1 cells assessed as bacteria killing effect at 1 to 16 ug/ml. It counts as functional, THP-1.

In brackets after ≈: the same amount, converted by molar mass.

Chain of Voltage-gated inwardly rectifying potassium channel KCNH2 (Q12809 whole entry): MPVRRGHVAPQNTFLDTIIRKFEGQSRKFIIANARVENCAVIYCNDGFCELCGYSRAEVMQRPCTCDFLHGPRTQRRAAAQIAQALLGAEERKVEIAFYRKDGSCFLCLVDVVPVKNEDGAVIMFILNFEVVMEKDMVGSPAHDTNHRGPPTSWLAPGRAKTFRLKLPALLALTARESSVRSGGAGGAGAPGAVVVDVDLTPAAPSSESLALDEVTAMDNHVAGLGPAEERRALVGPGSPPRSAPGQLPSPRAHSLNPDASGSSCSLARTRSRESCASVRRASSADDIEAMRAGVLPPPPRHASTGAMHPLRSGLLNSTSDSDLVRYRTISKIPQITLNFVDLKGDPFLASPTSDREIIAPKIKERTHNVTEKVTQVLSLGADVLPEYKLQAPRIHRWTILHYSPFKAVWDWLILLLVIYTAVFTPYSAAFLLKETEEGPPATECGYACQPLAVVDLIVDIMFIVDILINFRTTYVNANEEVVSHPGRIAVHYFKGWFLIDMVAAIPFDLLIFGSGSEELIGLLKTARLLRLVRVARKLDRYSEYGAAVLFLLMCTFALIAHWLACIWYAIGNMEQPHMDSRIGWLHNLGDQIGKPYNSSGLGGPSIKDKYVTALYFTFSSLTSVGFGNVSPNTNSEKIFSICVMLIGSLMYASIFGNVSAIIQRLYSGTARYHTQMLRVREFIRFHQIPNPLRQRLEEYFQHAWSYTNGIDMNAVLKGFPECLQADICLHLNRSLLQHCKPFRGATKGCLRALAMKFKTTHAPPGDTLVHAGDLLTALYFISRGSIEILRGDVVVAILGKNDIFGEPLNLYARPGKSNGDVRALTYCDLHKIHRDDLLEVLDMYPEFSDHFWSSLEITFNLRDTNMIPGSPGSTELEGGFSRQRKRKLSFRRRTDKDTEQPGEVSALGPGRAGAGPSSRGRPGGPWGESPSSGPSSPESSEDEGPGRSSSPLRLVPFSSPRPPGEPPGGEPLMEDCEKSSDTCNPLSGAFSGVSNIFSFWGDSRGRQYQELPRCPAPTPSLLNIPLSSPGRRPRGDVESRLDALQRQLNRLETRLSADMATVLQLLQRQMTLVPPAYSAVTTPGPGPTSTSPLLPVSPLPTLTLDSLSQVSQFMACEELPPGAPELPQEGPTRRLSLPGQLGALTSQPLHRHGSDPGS
Chain of DNA gyrase subunit A/DNA gyrase subunit B (P9WG45 whole entry): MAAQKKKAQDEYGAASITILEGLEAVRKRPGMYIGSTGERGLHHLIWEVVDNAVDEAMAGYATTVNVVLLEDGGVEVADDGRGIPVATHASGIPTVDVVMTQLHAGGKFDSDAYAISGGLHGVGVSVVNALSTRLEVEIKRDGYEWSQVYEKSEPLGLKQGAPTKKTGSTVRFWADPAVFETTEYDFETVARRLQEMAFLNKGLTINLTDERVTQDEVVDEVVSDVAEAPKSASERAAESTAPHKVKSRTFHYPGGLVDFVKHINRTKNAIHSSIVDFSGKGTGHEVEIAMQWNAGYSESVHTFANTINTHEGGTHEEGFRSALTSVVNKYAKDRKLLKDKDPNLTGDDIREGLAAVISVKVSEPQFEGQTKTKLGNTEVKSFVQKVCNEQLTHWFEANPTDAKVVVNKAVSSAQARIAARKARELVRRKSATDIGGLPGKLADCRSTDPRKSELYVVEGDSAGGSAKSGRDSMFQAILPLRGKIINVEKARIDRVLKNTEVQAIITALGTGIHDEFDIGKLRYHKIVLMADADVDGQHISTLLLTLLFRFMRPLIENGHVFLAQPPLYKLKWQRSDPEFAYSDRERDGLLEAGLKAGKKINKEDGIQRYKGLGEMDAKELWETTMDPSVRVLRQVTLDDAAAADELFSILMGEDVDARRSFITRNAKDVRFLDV
Chain of DNA gyrase subunit A/DNA gyrase subunit B (P9WG47 whole entry): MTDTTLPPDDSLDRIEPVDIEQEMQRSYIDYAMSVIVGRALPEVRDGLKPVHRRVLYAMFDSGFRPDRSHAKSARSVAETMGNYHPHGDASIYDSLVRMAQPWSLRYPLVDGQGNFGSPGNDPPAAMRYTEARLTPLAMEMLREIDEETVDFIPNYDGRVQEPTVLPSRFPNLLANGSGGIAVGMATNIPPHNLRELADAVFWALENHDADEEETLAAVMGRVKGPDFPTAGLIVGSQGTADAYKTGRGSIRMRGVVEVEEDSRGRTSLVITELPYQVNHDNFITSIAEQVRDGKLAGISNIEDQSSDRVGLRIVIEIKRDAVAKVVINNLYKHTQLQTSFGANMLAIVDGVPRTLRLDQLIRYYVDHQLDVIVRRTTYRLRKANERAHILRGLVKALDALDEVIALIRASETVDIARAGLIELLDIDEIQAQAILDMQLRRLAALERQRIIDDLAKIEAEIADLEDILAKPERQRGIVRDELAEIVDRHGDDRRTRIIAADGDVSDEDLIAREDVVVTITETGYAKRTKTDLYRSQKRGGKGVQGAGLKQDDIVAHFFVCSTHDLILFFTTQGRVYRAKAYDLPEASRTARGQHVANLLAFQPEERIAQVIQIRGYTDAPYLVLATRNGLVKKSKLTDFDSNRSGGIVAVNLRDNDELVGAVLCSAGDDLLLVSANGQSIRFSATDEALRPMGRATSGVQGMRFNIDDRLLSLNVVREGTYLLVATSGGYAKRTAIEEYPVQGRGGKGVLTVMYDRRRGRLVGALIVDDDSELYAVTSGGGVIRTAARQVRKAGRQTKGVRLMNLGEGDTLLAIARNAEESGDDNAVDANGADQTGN

For the compound `COc1ccc2ccc(=O)n(CCN3CCC(NCc4ccc5c(n4)NC(=O)CO5)CC3)c2n1`, 0.25 µM (≈ 0.116 µg/mL) was the least that counted as inhibitory in data set [1] (MIC). In addition, in data set [2], 23000 nM corresponded to half-maximal inhibition (IC50). On to `NS(=O)(=O)c1ccc(Oc2ccc3ccc(=O)n(CCN4CCC(NCc5ccc6c(n5)NC(=O)CO6)CC4)c3n2)cc1`, for which the MIC in data set [1] is 0.03 µM (≈ 0.0182 µg/mL). The permeability entry in data set [3] was “impermeable”. This compound also had an IC50 in data set [2] of over 100000 nM. Consider `O=C1COc2ccc(CNC3CCN(CCn4c(=O)ccc5ccc(Oc6cncnc6)nc54)CC3)nc2N1`, for which the IC50 in data set [4] was 173 nM; in data set [2] it was over 224000 nM. The MIC in data set [1] worked out at 0.25 µM (≈ 0.132 µg/mL). In data set [1], `Cn1ccc(COc2cnc3ccc(=O)n(CCN4CCC(NCc5ccc6c(n5)NC(=O)CO6)CC4)c3c2)n1` yielded an MIC of 0.25 µM (≈ 0.136 µg/mL). `O=C1COc2ccc(CNC3CCN(CCn4c(=O)ccc5ncc(OCc6ccccn6)cc54)CC3)nc2N1`: the lowest concentration to inhibit growth in data set [1] (MIC) was 0.5 µM (≈ 0.271 µg/mL). For `Cc1ncc(CNC2CCN(CCn3c(=O)ccc4ncc(Oc5ccc(S(N)(=O)=O)cc5)cc43)CC2)cc1Cl`, in data set [1], the MIC came out at 0.06 µM (≈ 0.035 µg/mL). The same compound yielded an IC50 in data set [2] of 82000 nM.

With `O=C1COc2ccc(CN[C@@H]3CCN(CCn4c(=O)ccc5ncc(Oc6ccon6)cc54)C[C@@H]3F)nc2N1`, the concentration in solution in data set [5] (solubility) came to 665 µM (≈ 356 µg/mL). This compound also returned an MIC in data set [1] of 0.25 µM (≈ 0.134 µg/mL). Moreover, the permeability result in data set [3] is “permeable”.

`O=C1COc2ccc(CNC3CCN(CCn4c(=O)ccc5ncc(Oc6cccnc6)cc54)CC3)nc2N1` returned a solubility in data set [5] of 665 µM (≈ 351 µg/mL). Moreover, inhibition of growth in data set [1] (MIC) required 0.06 µM (≈ 0.0317 µg/mL). Besides, the permeability entry in data set [3] is “permeable”.

Compound `NS(=O)(=O)c1ccc(Oc2cnc3ccc(=O)n(CCN4CCC(c5nc6cc(Cl)ccc6[nH]5)CC4)c3c2)cc1` came in with an MIC in data set [1] of 0.19 µM (≈ 0.11 µg/mL). The permeability entry in data set [3] is “impermeable”. Consider `O=C1COc2ccc(CNC3CCN(CCn4c(=O)ccc5ccc(Oc6cccnc6)nc54)CC3)nc2N1`, for which the IC50 in data set [4] worked out at 104 nM. The same compound yielded an MIC in data set [1] of 0.06 µM (≈ 0.0317 µg/mL). For the compound `O=C1COc2ccc(CN[C@@H]3CCN(CCn4c(=O)ccc5ncc(Oc6cccnc6)cc54)C[C@@H]3F)nc2N1`, the IC50 in data set [4] was 800 nM. Also, in data set [5], the concentration in solution (solubility) came to 665 µM (≈ 363 µg/mL). In data set [1], inhibition of growth (MIC) required 0.25 µM (≈ 0.136 µg/mL). The LCK in data set [6] is over 1; in data set [8], 1. For the same compound, in data set [7], the Activity result was “Dose-dependent effect”. In addition, the permeability result in data set [3] is “permeable”. Consider `COc1cnc2ccc(=O)n(CCN3CCC(c4nc5cc(Cl)ccc5[nH]4)CC3)c2c1`, for which the MIC in data set [1] was determined as 0.25 µM (≈ 0.109 µg/mL). `Cc1cc2[nH]c(C3CCN(CCn4c(=O)ccc5ncc(Oc6ccc(S(N)(=O)=O)cc6)cc54)CC3)nc2cc1C#N` returned an MIC in data set [1] of 0.25 µM (≈ 0.146 µg/mL). The IC50 in data set [2] is over 33000 nM.

With `O=C1COc2ccc(CNC3CCN(CCn4c(=O)ccc5ccc(Oc6ccon6)nc54)CC3)nc2N1`, 0.25 µM (≈ 0.129 µg/mL) was the least that counted as inhibitory in data set [1] (MIC). For `Cc1ncc(CNC2CCN(CCn3c(=O)ccc4ncc(F)cc43)CC2)cc1Cl`, the IC50 in data set [4] came to 250 nM. Moreover, the MIC in data set [1] turned out to be 0.19 µM (≈ 0.0817 µg/mL). Take `COc1c(N2C[C@@H]3CCCN[C@@H]3C2)c(F)cc2c(=O)c(C(=O)O)cn(C3CC3)c12` [MOXIFLOXACIN]: the MIC in data set [1] came to 0.13 µM (≈ 0.0522 µg/mL). In data set [1], `Cc1ncc(CNC2CCN(CCn3c(=O)ccc4ncc(Oc5ccc(S(N)(=O)=O)cc5)cc43)CC2)cc1C#N` gave an MIC of 0.06 µM (≈ 0.0344 µg/mL). This compound gave an IC50 in data set [2] of over 100000 nM. As for `O=C1COc2ccc(CNC3CCN(CCn4c(=O)ccc5ncc(Oc6ccon6)cc54)CC3)nc2N1`, the solubility in data set [5] amounted to 665 µM (≈ 344 µg/mL). The MIC in data set [1] is 0.25 µM (≈ 0.129 µg/mL). Moreover, the permeability entry in data set [3] is given as “permeable”.

Turning to `O=C1COc2ccc(CNC3CCN(CCn4c(=O)ccc5ncc(Oc6cncc(F)c6)cc54)CC3)nc2N1`, the MIC in data set [1] worked out at 0.25 µM (≈ 0.136 µg/mL).

Consider `O=C1COc2ccc(CNC3CCN(CCn4c(=O)ccc5ccc(Cl)nc54)CC3)nc2N1`, for which, in data set [4], the IC50 came out at 110 nM. This compound also returned an MIC in data set [1] of 0.19 µM (≈ 0.0891 µg/mL).

`O=C1COc2ccc(CNC3CCN(CCn4c(=O)ccc5ncc(OCc6cccnn6)cc54)CC3)nc2N1` yielded an MIC in data set [1] of 1 µM (≈ 0.543 µg/mL).

In data set [1], `O=C(O)c1cn(C2CC2)c2cc(N3CCNCC3)c(F)cc2c1=O` [CIPROFLOXACIN] yielded an MIC of 0.5 µM (≈ 0.166 µg/mL). Still for that read-out and setting: as for `O=C1COc2ccc(CNC3CCN(CCn4c(=O)ccc5ncc(O[C@@H]6CCOC6)cc54)CC3)nc2N1`, the figure is 0.25 µM (≈ 0.13 µg/mL); as for `NNC(=O)c1ccncc1` [ISONIAZID], 0.06 µM (≈ 0.00823 µg/mL). The same measure, in the same setting: as for `O=C1COc2ccc(CNC3CCN(CCn4c(=O)ccc5ncc(O[C@H]6CCOC6)cc54)CC3)nc2N1`, the figure is 0.5 µM (≈ 0.26 µg/mL).
